Results: ChEMBL document CHEMBL4004838, “Design and synthesis of novel phenyl -1, 4-beta-carboline-hybrid molecules as potential anticancer agents” (Eur J Med Chem, 2017)
≈ marks a conversion by molar mass, not a printed value.

Assays:
[1] = molecular target: Kinesin-like protein KIF11 (Homo sapiens, UniProt P52732); experiment: Inhibition of EG5 (unknown origin)
[2] = system: HepG2; experiment: Cytotoxicity against human HepG2 cells assessed as cell viability after 72 hrs by MTT assay; assay type: functional, cell-based; conditions: HepG2, 72 h
[3] = system: LNCaP; experiment: Cytotoxicity against human LNCAP cells assessed as cell viability after 72 hrs by MTT assay; assay type: functional, cell-based
[4] = system: MCF7; experiment: Cytotoxicity against human MCF7 cells assessed as cell viability after 72 hrs by MTT assay; assay type: functional, cell-based; conditions: MCF7, 72 h

Sequence of Kinesin-like protein KIF11 (P52732 whole entry): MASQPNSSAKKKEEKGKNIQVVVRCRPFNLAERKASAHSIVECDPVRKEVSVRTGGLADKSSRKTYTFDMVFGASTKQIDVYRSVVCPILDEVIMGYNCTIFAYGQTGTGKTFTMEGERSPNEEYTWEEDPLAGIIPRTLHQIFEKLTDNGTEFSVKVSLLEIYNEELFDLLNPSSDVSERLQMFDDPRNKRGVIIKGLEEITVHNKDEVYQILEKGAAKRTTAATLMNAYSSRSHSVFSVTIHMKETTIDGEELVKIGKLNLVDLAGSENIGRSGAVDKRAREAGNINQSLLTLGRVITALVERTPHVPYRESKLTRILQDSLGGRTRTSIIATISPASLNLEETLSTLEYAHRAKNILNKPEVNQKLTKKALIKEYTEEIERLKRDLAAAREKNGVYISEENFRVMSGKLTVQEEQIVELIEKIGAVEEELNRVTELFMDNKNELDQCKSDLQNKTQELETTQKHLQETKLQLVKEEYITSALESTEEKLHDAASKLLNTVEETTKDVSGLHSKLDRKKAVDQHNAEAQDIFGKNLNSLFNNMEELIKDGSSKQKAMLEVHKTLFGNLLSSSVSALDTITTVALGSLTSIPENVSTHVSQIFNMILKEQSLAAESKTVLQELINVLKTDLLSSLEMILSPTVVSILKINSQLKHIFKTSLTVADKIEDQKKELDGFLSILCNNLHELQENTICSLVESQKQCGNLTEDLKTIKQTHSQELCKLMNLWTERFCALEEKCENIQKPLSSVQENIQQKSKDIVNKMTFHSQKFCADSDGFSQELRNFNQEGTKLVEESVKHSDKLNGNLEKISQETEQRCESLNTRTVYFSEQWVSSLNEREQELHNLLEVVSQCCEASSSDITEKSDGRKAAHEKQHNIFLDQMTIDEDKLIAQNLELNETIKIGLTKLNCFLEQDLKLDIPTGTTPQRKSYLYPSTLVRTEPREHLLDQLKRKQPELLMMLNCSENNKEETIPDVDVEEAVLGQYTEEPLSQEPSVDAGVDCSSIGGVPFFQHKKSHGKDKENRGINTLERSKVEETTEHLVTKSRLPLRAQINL

IC50 [1]	SMILES	IC50 [2]	IC50 [3]	IC50 [4]
800 nM	CCCCN1C(=O)[C@H]2Cc3c([nH]c4ccccc34)[C@@H](c3cccc(O)c3)N2C1=O	–	–	–
–	c1ccc2c3c([nH]c2c1)[C@@H](c1ccc([C@H]2NCCc4c2[nH]c2ccccc42)cc1)NCC3	5.22 µg/mL (≈ 12.5 µM)	15.2 µg/mL (≈ 36.4 µM)	8.7 µg/mL (≈ 20.8 µM)
–	c1ccc2c3c([nH]c2c1)[C@H](c1ccc([C@@H]2NCCc4c2[nH]c2ccccc42)cc1)NCC3	6.22 µg/mL (≈ 14.9 µM)	13.3 µg/mL (≈ 31.8 µM)	5.19 µg/mL (≈ 12.4 µM)
–	COc1cccc2c1C(=O)c1c(O)c3c(c(O)c1C2=O)C[C@@](O)(C(=O)CO)C[C@@H]3O[C@H]1C[C@H](N)[C@H](O)[C@H](C)O1 [DOXORUBICIN]	4.23 µg/mL (≈ 7.78 µM)	5.28 µg/mL (≈ 9.71 µM)	–
